The subject of assay [1] is KBM5 cells. Briefly: response of KBM5 cells to STI-571 exposure. The format is cell-based, human. The protocol:
(§1) The cells were cultured in Iscove's modified Dulbecco's medium supplemented with 10% fetal calf serum (Invitrogen Corp., Carlsbad, Calif.) at 37° C. in atmosphere of 5% CO2 in air.

The subject of assay [2] is KBM7 cells. Nature of the assay: response of KBM7 cells to STI-571 exposure. It counts as cell-based, human. The protocol:
as §1

The subject of assay [3] is KBM5-STI^R cells (STI-571-resistant KBM5). Briefly: in vitro growth inhibition (MTS) assay, KBM5-STI^R. The format is cell-based, human. The settings on record: 3 day MTS assay, 72 h exposure, read-out: IC50 (drug concentration which causes 50% growth inhibition).
Assay [4] has as its system KBM-7 cells. Nature of the assay: in vitro growth inhibition (MTS) assay, KBM-7. The settings on record: 3 day MTS assay, 72 h exposure, read-out: IC50 (drug concentration which causes 50% growth inhibition). The format is cell-based, human. The protocol: (§2) β-L Oddc was evaluated using an in vitro growth inhibition (MTS) assay. The description of the cell lines used and the details of the MTS assay are described below.
(§3) Cell lines: Two human CML, Ph+, p210 Bcr-Abl expressing cell lines were used, namely, KBM-5 and KBM-7. KBM-5 was derived from a patient in the blastic phase of CML and was evaluated to be absent of normal c-ABL. KBM-7 was identified previously to be a human near-haploid cell line. These two cell lines were further described in the references below, now incorporated by reference:
as §1
(§4) Growth inhibition (MTS) assay: The in vitro growth inhibition effect of β-L Oddc on leukemic cells was determined by measuring MTS (CellTiter 96®Aqueous One Solution Reagent, Promega Corporation, WI) dye absorbance by living cells. Briefly, cells were seeded in triplicate in 96-well microtiter plates (Falcon, USA) at a concentration of 4×10^5 cells /ml. After exposure to the β-L Oddc for 72 h, 20 μl of MTS solution were added to each well, the plates were incubated for additional 4 h at 37° C., and absorbance at 490 nm was measured.
Background: Formazan colour is commonly taken as a measure of viable cells.

Assay [5] deals with KBM-5 cells. Nature of the assay: in vitro growth inhibition (MTS) assay, KBM-5. It counts as cell-based, human. The note with it: 3 day MTS assay, 72 h exposure, read-out: IC50 (drug concentration which causes 50% growth inhibition). The protocol: as §2, §3, §1, §4
Assay [6] concerns KBM7-STI^R cells (STI-571-resistant KBM7). Nature of the assay: in vitro growth inhibition (MTS) assay, KBM7-STI^R. The format is cell-based, human. The settings on record: 3 day MTS assay, 72 h exposure, read-out: IC50 (drug concentration which causes 50% growth inhibition). The protocol: as §2, §3, §4
The test system of assay [7] is chronic myeloid leukemia in blastic phase (CML-BP). Nature of the assay: preliminary multicenter study in patients with CML-BP. The format is in vivo, human. The note with it: 8mg/m^2/day daily for 5 days, twenty one patients evaluable, 40 cycles, data not verified. The protocol: A preliminary study was conducted to investigate the activity of β-L Oddc in patients with chronic myeloid leukemia in blastic phase (CML-BP). The multicenter study was conducted using β-L Oddc 8mg/m^2/day daily for 5 days for patients with CML-BP who had received no prior chemotherapy for CML-BP. Patients who had received Gleevec therapy as sole prior therapy for CML-BP were also eligible. Twenty-six patients, 17 male, 26 performance score less than or equal to 2, median age 54 years (range 31-84) had been entered in the study to date. 13 (50%) patients received β-L Oddc as first therapy for CML-BP, 13 (50%) had failed prior Gleevec therapy for CML-BP. Response definitions are as follows: Complete hematologic response (CHR) requires normalization of peripheral counts and differentials with less than or equal to 5% marrow blasts for at least 4 weeks. Hematologic improvement (HI) is as with CHR but with persistence of thrombocytopenia less than 100×10^9/L and few immature peripheral cells. A partial hematologic response (PHR) is as per CHR, but allows persistence of, though less than or equal to 50% reduction of, palpable splenomegaly and thrombocytosis (platelets>450×10^9/L) or the presence of few immature peripheral cells. […]

Counter-ions that a name gives are not always drawn.

Turning to `Cc1ccc(NC(=O)c2ccc(CN3CCN(C)CC3)cc2)cc1Nc1nccc(-c2cccnc2)n1` [STI-571, imatinib mesylate], the entries for the “response to STI-571 exposure” value in assay [1] and in assay [2] were “G0/G1 cell cycle arrest” and “apoptosis”, respectively.

Take `Nc1ccn([C@@H]2CO[C@H](CO)O2)c(=O)n1` [β-L Oddc, (−)-β-L-Dioxolane-Cytidine]: the IC50 in assay [3], in assay [4], in assay [5] and in assay [6] was 500 to 1000 nM in each case. In assay [7], the “patients in whom some responses were observed” value is 4 patients.
